In patent US12496315B2, “Compositions for drug delivery and methods of use thereof” (Stellular Bio, Inc., priority 2018, dated 2025):

Tests used:
[1] = system: iPSC differentiation cultures on Laminin 521; experiment: WNT agonist addition during iPSC directed differentiation; format: cell-based, human; details: for Stage 1 differentiation efficiency at day 6, CD31 and CD34 immunofluorescence: first 48 hours
Description: WNT signaling is important during development. The GSK3 kinase inhibitors CHIR98014 and CHIR99021 act as WNT agonists. […] The control and CHIR98014 cultures were then transitioned to Stage 2, where the production and release of preMKs were tracked by immunofluorescence staining of CD41 and CD43.

[2] = system: iPSCs; experiment: Soluble Laminin 521 addition in 3D iPSC differentiation, preMK yield; format: cell-based, human; details: for Stage 2 preMK yields vs control: addition at Day −1 or Day 6
Method: […] 24 hours later, the media was replaced with Stage 1 media and media exchanges were performed for 6 days. Media was then exchanged with Stage 2 media, with or without soluble Laminin 521. 24 hours later, daily half media exchanges were performed for up to 6 additional days. […] To determine if the effect of Laminin 521 could also be observed in agitated 3D cultures, iPSCs were dissociated as single cells and 1.5 million cells were seeded into each well of a 6-well ultra-low adherent plate containing StemFlex and the Rock inhibitor H1152 (control media), with or without soluble recombinant Laminin 521, and placed on an orbital shaker. 24 hours later, the media was replaced with Stage 1 media and media exchanges were performed for 6 days. Media was then exchanged with Stage 2 media, with or without soluble Laminin 521. 24 hours later, daily half media exchanges were performed for up to 6 additional days.

Molecule: Cc1c[nH]c(-c2cnc(NCCNc3ccc(C#N)cn3)nc2-c2ccc(Cl)cc2Cl)n1 [CHIR99021]
- Stage 1 differentiation efficiency at day 6, CD31 and CD34 immunofluorescence ([1]; 6 μM): dramatic increase

Molecule: CHIR98014
- Stage 1 differentiation efficiency at day 6, CD31 and CD34 immunofluorescence ([1]; 0.6 μM): dramatic increase
- Stage 2 output, visual estimation of CD41+ cells ([1]; 0.6 μM, first 48 hours of Stage 1): higher output during Stage 2

Molecule: Laminin 521: soluble recombinant Laminin 521
- Stage 2 preMK yields vs control ([2]; 6-well ultra-low adherent plate on orbital shaker): increased the preMK yields
- Stage 2 preMK yields vs control ([2]; 96-well U-bottom ultra-low adherent plate): increased the preMK yields
- Laminin 521 effect on preMK yields ([2]; single cell passaged iPSCs aggregated in NutriStem): amplified
